Assays:
Assay in all cases: Test E flooded paddy water application
Assay type in all cases: in vivo
[1] = system: transplanted rice seedlings (Oryza sativa cv. ‘Japonica-M202’); settings: Flood, 21 days, scale 0 to 100 (0 no effect, 100 complete control); for Plant response rating, Rice, Transplanted: 16 g ai/ha
Summary of the method: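 Response scored visually on a 0–100 scale (100 = complete control) at 21 days against untreated pots. Treatment was into paddy water 3 cm deep over silt loam, with plants at the 2.0–2.5-leaf stage, grown under 16-h light at 29.5/26.7 °C day/night.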

[2] = system: rice flatsedge (Cyperus iria); settings: Flood, 21 days, scale 0 to 100 (0 no effect, 100 complete control); for Plant response rating, Flatsedge, Rice: 16 g ai/ha
Summary of the method: (§1)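 Weeds sown in sterilized Tama silt loam (2.6% organic matter), greenhouse 29.5/26.7° C, 16-h photoperiod; at 2.0–2.5-leaf stage pots flooded to 3 cm and compound added to paddy water. Visual rating vs untreated controls after 21 days, 0 (no effect) to 100 (complete control).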

[3] = system: bearded (brdd.) sprangletop (Leptochloa fusca ssp. fascicularis); settings: Flood, 21 days, scale 0 to 100 (0 no effect, 100 complete control); for Plant response rating, Sprangletop, Brdd.: 16 g ai/ha
Summary of the method: as §1

[4] = system: late watergrass (Echinochloa oryzicola); settings: Flood, 21 days, scale 0 to 100 (0 no effect, 100 complete control); for Plant response rating, Watergrass, Late: 16 g ai/ha
Summary of the method: as §1

[5] = system: purple redstem (Ammannia coccinea); settings: Flood, 21 days, scale 0 to 100 (0 no effect, 100 complete control); for Plant response rating, Redstem: 16 g ai/ha
Summary of the method: as §1

[6] = system: barnyardgrass (Echinochloa crus-galli); settings: Flood, 21 days, scale 0 to 100 (0 no effect, 100 complete control); for Plant response rating, Barnyardgrass: 16 g ai/ha
Summary of the method: as §1

CCOC(=O)c1nc(-c2ccc(Cl)cc2)nc(N)c1Br [Compound 37]
90: Flatsedge, Rice plant response rating ([2]; 250 g ai/ha)
75: Flatsedge, Rice plant response rating ([2]; 125 g ai/ha)
80: Redstem plant response rating ([5]; 250 g ai/ha)
0: Rice, Transplanted plant response rating ([1]; 32 g ai/ha) | Rice, Transplanted plant response rating ([1]; 64 g ai/ha) | Rice, Transplanted plant response rating ([1]; 125 g ai/ha) | Rice, Transplanted plant response rating ([1]; 250 g ai/ha) | Plant response rating, Rice, Transplanted [1] | Flatsedge, Rice plant response rating ([2]; 32 g ai/ha) | Flatsedge, Rice plant response rating ([2]; 64 g ai/ha) | Plant response rating, Flatsedge, Rice [2] | Sprangletop, Brdd. plant response rating ([3]; 32 g ai/ha) | Sprangletop, Brdd. plant response rating ([3]; 64 g ai/ha) | Sprangletop, Brdd. plant response rating ([3]; 125 g ai/ha) | Sprangletop, Brdd. plant response rating ([3]; 250 g ai/ha) | Plant response rating, Sprangletop, Brdd. [3] | Watergrass, Late plant response rating ([4]; 32 g ai/ha) | Watergrass, Late plant response rating ([4]; 64 g ai/ha) | Watergrass, Late plant response rating ([4]; 125 g ai/ha) | Watergrass, Late plant response rating ([4]; 250 g ai/ha) | Plant response rating, Watergrass, Late [4] | Redstem plant response rating ([5]; 32 g ai/ha) | Plant response rating, Redstem [5] | Barnyardgrass plant response rating ([6]; 64 g ai/ha) | Barnyardgrass plant response rating ([6]; 125 g ai/ha) | Barnyardgrass plant response rating ([6]; 250 g ai/ha) | Plant response rating, Barnyardgrass [6]
40: Redstem plant response rating ([5]; 125 g ai/ha)
30: Redstem plant response rating ([5]; 64 g ai/ha)

COC(=O)c1nc(-c2ccc(C(F)(F)F)cc2)nc(N)c1Cl [Compound 44]
10: Redstem plant response rating ([5]; 64 g ai/ha) | Barnyardgrass plant response rating ([6]; 500 g ai/ha)
20: Sprangletop, Brdd. plant response rating ([3]; 32 g ai/ha) | Watergrass, Late plant response rating ([4]; 500 g ai/ha) | Redstem plant response rating ([5]; 125 g ai/ha)
30: Sprangletop, Brdd. plant response rating ([3]; 64 g ai/ha) | Sprangletop, Brdd. plant response rating ([3]; 125 g ai/ha)
75: Redstem plant response rating ([5]; 500 g ai/ha)
0: Rice, Transplanted plant response rating ([1]; 32 g ai/ha) | Rice, Transplanted plant response rating ([1]; 64 g ai/ha) | Rice, Transplanted plant response rating ([1]; 125 g ai/ha) | Rice, Transplanted plant response rating ([1]; 250 g ai/ha) | Rice, Transplanted plant response rating ([1]; 500 g ai/ha) | Watergrass, Late plant response rating ([4]; 32 g ai/ha) | Watergrass, Late plant response rating ([4]; 64 g ai/ha) | Watergrass, Late plant response rating ([4]; 125 g ai/ha) | Watergrass, Late plant response rating ([4]; 250 g ai/ha) | Redstem plant response rating ([5]; 32 g ai/ha) | Barnyardgrass plant response rating ([6]; 32 g ai/ha) | Barnyardgrass plant response rating ([6]; 64 g ai/ha) | Barnyardgrass plant response rating ([6]; 125 g ai/ha) | Barnyardgrass plant response rating ([6]; 250 g ai/ha)
50: Sprangletop, Brdd. plant response rating ([3]; 250 g ai/ha) | Redstem plant response rating ([5]; 250 g ai/ha)
95: Sprangletop, Brdd. plant response rating ([3]; 500 g ai/ha)

COC(=O)c1nc(-c2ccc(Cl)cc2)nc(N)c1Cl [Compound 58, methyl 6-amino-5-chloro-2-(4-chlorophenyl)-4-pyrimidinecarboxylate]
20: Plant response rating, Sprangletop, Brdd. [3]
95: Redstem plant response rating ([5]; 125 g ai/ha) | Redstem plant response rating ([5]; 250 g ai/ha)
80: Redstem plant response rating ([5]; 32 g ai/ha)
100: Flatsedge, Rice plant response rating ([2]; 32 g ai/ha) | Flatsedge, Rice plant response rating ([2]; 64 g ai/ha) | Flatsedge, Rice plant response rating ([2]; 125 g ai/ha) | Flatsedge, Rice plant response rating ([2]; 250 g ai/ha)
0: Rice, Transplanted plant response rating ([1]; 32 g ai/ha) | Rice, Transplanted plant response rating ([1]; 64 g ai/ha) | Rice, Transplanted plant response rating ([1]; 125 g ai/ha) | Rice, Transplanted plant response rating ([1]; 250 g ai/ha) | Plant response rating, Rice, Transplanted [1] | Watergrass, Late plant response rating ([4]; 32 g ai/ha) | Watergrass, Late plant response rating ([4]; 64 g ai/ha) | Watergrass, Late plant response rating ([4]; 125 g ai/ha) | Watergrass, Late plant response rating ([4]; 250 g ai/ha) | Plant response rating, Watergrass, Late [4]
40: Plant response rating, Flatsedge, Rice [2] | Sprangletop, Brdd. plant response rating ([3]; 32 g ai/ha)
60: Sprangletop, Brdd. plant response rating ([3]; 64 g ai/ha) | Sprangletop, Brdd. plant response rating ([3]; 125 g ai/ha) | Sprangletop, Brdd. plant response rating ([3]; 250 g ai/ha) | Plant response rating, Redstem [5]
85: Redstem plant response rating ([5]; 64 g ai/ha)

CCOC(=O)c1nc(-c2ccc3c(c2)OCO3)nc(N)c1Cl [Compound 74]
20: Redstem plant response rating ([5]; 125 g ai/ha)
25: Redstem plant response rating ([5]; 250 g ai/ha)
0: Rice, Transplanted plant response rating ([1]; 32 g ai/ha) | Rice, Transplanted plant response rating ([1]; 64 g ai/ha) | Rice, Transplanted plant response rating ([1]; 125 g ai/ha) | Rice, Transplanted plant response rating ([1]; 250 g ai/ha) | Plant response rating, Rice, Transplanted [1] | Flatsedge, Rice plant response rating ([2]; 32 g ai/ha) | Flatsedge, Rice plant response rating ([2]; 64 g ai/ha) | Plant response rating, Flatsedge, Rice [2] | Sprangletop, Brdd. plant response rating ([3]; 32 g ai/ha) | Sprangletop, Brdd. plant response rating ([3]; 64 g ai/ha) | Sprangletop, Brdd. plant response rating ([3]; 125 g ai/ha) | Sprangletop, Brdd. plant response rating ([3]; 250 g ai/ha) | Plant response rating, Sprangletop, Brdd. [3] | Watergrass, Late plant response rating ([4]; 32 g ai/ha) | Watergrass, Late plant response rating ([4]; 64 g ai/ha) | Watergrass, Late plant response rating ([4]; 125 g ai/ha) | Watergrass, Late plant response rating ([4]; 250 g ai/ha) | Plant response rating, Watergrass, Late [4] | Redstem plant response rating ([5]; 32 g ai/ha) | Redstem plant response rating ([5]; 64 g ai/ha) | Plant response rating, Redstem [5] | Barnyardgrass plant response rating ([6]; 32 g ai/ha) | Barnyardgrass plant response rating ([6]; 64 g ai/ha) | Barnyardgrass plant response rating ([6]; 250 g ai/ha) | Plant response rating, Barnyardgrass [6]
90: Flatsedge, Rice plant response rating ([2]; 125 g ai/ha)
95: Flatsedge, Rice plant response rating ([2]; 250 g ai/ha)

Nc1nc(-c2ccc(Cl)cc2)nc(C(=O)O)c1Br [Compound 88]
65: Redstem plant response rating ([5]; 250 g ai/ha)
85: Flatsedge, Rice plant response rating ([2]; 32 g ai/ha) | Sprangletop, Brdd. plant response rating ([3]; 125 g ai/ha)
50: Plant response rating, Flatsedge, Rice [2]
95: Sprangletop, Brdd. plant response rating ([3]; 250 g ai/ha)
100: Flatsedge, Rice plant response rating ([2]; 64 g ai/ha) | Flatsedge, Rice plant response rating ([2]; 125 g ai/ha) | Flatsedge, Rice plant response rating ([2]; 250 g ai/ha)
0: Rice, Transplanted plant response rating ([1]; 32 g ai/ha) | Rice, Transplanted plant response rating ([1]; 64 g ai/ha) | Rice, Transplanted plant response rating ([1]; 125 g ai/ha) | Rice, Transplanted plant response rating ([1]; 250 g ai/ha) | Plant response rating, Rice, Transplanted [1] | Sprangletop, Brdd. plant response rating ([3]; 32 g ai/ha) | Sprangletop, Brdd. plant response rating ([3]; 64 g ai/ha) | Plant response rating, Sprangletop, Brdd. [3] | Watergrass, Late plant response rating ([4]; 32 g ai/ha) | Watergrass, Late plant response rating ([4]; 64 g ai/ha) | Watergrass, Late plant response rating ([4]; 125 g ai/ha) | Watergrass, Late plant response rating ([4]; 250 g ai/ha) | Plant response rating, Watergrass, Late [4] | Redstem plant response rating ([5]; 32 g ai/ha) | Redstem plant response rating ([5]; 64 g ai/ha) | Redstem plant response rating ([5]; 125 g ai/ha) | Plant response rating, Redstem [5] | Barnyardgrass plant response rating ([6]; 32 g ai/ha) | Barnyardgrass plant response rating ([6]; 64 g ai/ha) | Barnyardgrass plant response rating ([6]; 125 g ai/ha) | Barnyardgrass plant response rating ([6]; 250 g ai/ha) | Plant response rating, Barnyardgrass [6]

Cc1ccc(-c2nc(N)c(Cl)c(C(=O)O)n2)cc1 [Compound 91]
50: Redstem plant response rating ([5]; 250 g ai/ha)
10: Rice, Transplanted plant response rating ([1]; 250 g ai/ha) | Barnyardgrass plant response rating ([6]; 64 g ai/ha) | Barnyardgrass plant response rating ([6]; 125 g ai/ha) | Barnyardgrass plant response rating ([6]; 250 g ai/ha)
0: Rice, Transplanted plant response rating ([1]; 32 g ai/ha) | Rice, Transplanted plant response rating ([1]; 64 g ai/ha) | Rice, Transplanted plant response rating ([1]; 125 g ai/ha) | Plant response rating, Rice, Transplanted [1] | Sprangletop, Brdd. plant response rating ([3]; 32 g ai/ha) | Sprangletop, Brdd. plant response rating ([3]; 64 g ai/ha) | Watergrass, Late plant response rating ([4]; 32 g ai/ha) | Watergrass, Late plant response rating ([4]; 64 g ai/ha) | Watergrass, Late plant response rating ([4]; 125 g ai/ha) | Watergrass, Late plant response rating ([4]; 250 g ai/ha) | Plant response rating, Watergrass, Late [4] | Redstem plant response rating ([5]; 32 g ai/ha) | Redstem plant response rating ([5]; 64 g ai/ha) | Plant response rating, Redstem [5] | Barnyardgrass plant response rating ([6]; 32 g ai/ha) | Plant response rating, Barnyardgrass [6]
30: Sprangletop, Brdd. plant response rating ([3]; 125 g ai/ha) | Sprangletop, Brdd. plant response rating ([3]; 250 g ai/ha) | Redstem plant response rating ([5]; 125 g ai/ha)

CCOC(=O)c1nc(-c2ccc(Br)cc2)nc(N)c1Cl [Compound 94, ethyl 6-amino-2-(4-bromophenyl)-5-chloro-4-pyrimidinecarboxylate]
10: Rice, Transplanted plant response rating ([1]; 64 g ai/ha) | Rice, Transplanted plant response rating ([1]; 125 g ai/ha)
75: Redstem plant response rating ([5]; 64 g ai/ha)
20: Rice, Transplanted plant response rating ([1]; 250 g ai/ha) | Sprangletop, Brdd. plant response rating ([3]; 125 g ai/ha)
65: Redstem plant response rating ([5]; 32 g ai/ha)
40: Sprangletop, Brdd. plant response rating ([3]; 250 g ai/ha)
100: Flatsedge, Rice plant response rating ([2]; 32 g ai/ha) | Flatsedge, Rice plant response rating ([2]; 64 g ai/ha) | Flatsedge, Rice plant response rating ([2]; 125 g ai/ha) | Flatsedge, Rice plant response rating ([2]; 250 g ai/ha) | Plant response rating, Flatsedge, Rice [2] | Redstem plant response rating ([5]; 125 g ai/ha) | Redstem plant response rating ([5]; 250 g ai/ha)
0: Rice, Transplanted plant response rating ([1]; 32 g ai/ha) | Plant response rating, Rice, Transplanted [1] | Sprangletop, Brdd. plant response rating ([3]; 32 g ai/ha) | Sprangletop, Brdd. plant response rating ([3]; 64 g ai/ha) | Plant response rating, Sprangletop, Brdd. [3] | Watergrass, Late plant response rating ([4]; 32 g ai/ha) | Watergrass, Late plant response rating ([4]; 64 g ai/ha) | Watergrass, Late plant response rating ([4]; 125 g ai/ha) | Watergrass, Late plant response rating ([4]; 250 g ai/ha) | Plant response rating, Watergrass, Late [4] | Plant response rating, Redstem [5] | Barnyardgrass plant response rating ([6]; 32 g ai/ha) | Barnyardgrass plant response rating ([6]; 64 g ai/ha) | Barnyardgrass plant response rating ([6]; 125 g ai/ha) | Barnyardgrass plant response rating ([6]; 250 g ai/ha) | Plant response rating, Barnyardgrass [6]
